Measurements published in patent US9981940B2, “Aryl sulfide derivatives and aryl sulfoxide derivatives as acaricides and insecticides” (BAYER CROPSCIENCE AKTIENGESELLSCHAFT, priority 2013, dated 2018).

Columns and labels:
[1] = tested on: Tetranychus urticae; experiment: Tetranychus urticae spray test, OP-resistant (TETRUR); type: in vivo; settings: after 6 days; for pest or weed control at 500 g/ha: Tetranychus urticae, 144 h, read-out: efficacy
Summary of the method: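 Bean leaf discs infested with all stages of an OP-resistant Tetranychus urticae strain sprayed with compound in acetone/DMF with alkylaryl polyglycol ether emulsifier, diluted in water. Efficacy in % scored after 6 days; 100% means all mites killed.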

[2] = log P by HPLC (OECD Guideline 117), method [a] acidic range; type: physicochemical; settings: for logP[a]: HPLC, method [a] acidic range; for chromatographic logP: reversed-phase C18 HPLC column, acidic range
Description: (§1) The log P values were determined analogously to OECD Guideline 117 (EC Directive 92/69/EEC) by HPLC (high-performance liquid chromatography) using reversed-phase columns (C 18), by the following methods:
[a] The LC-MS determination in the acidic range is effected at pH 2.7 with 0.1% aqueous formic acid and acetonitrile (contains 0.1% formic acid) as eluents; linear gradient from 10% acetonitrile to 95% acetonitrile.

[3] = log P by HPLC (OECD Guideline 117), method [b] neutral range; type: physicochemical; settings: HPLC; for logP[b]: method [b] neutral range; for chromatographic logP: reversed-phase C18 HPLC column, neutral range, pH 7.8
Description: as §1
[b] The LC-MS determination in the neutral range is effected at pH 7.8 with 0.001 molar aqueous ammonium hydrogencarbonate solution and acetonitrile as eluents; linear gradient from 10% acetonitrile to 95% acetonitrile.

[4] = pH 2.7, HPLC method [a], read-out: logP[a]
[5] = pH 2.7, HPLC, pH 2.7, read-out: log P[a]

Structure (SMILES) | logP[a] [2] | logP[b] [3] | chromatographic logP [2, 4] | chromatographic logP [2, 5] | chromatographic logP [3] | efficacy ([1]; application rate of 500 g/ha) [%] | efficacy ([1]; application rate of 100 g/ha) [%] | pest or weed control at 500 g/ha ([1]; application rate of 500 g/ha) [%]
Cc1cc(F)c(-n2nc([S+]([O-])CC3CC3)n(C)c2=O)cc1[S+]([O-])CC(F)(F)F (centres unmarked) [Example 248] | 2.03 | 1.98 | – | – | – | 100 | – | –
C=CCn1c([S+]([O-])C(C)C)nn(-c2cc([S+]([O-])CC(F)(F)F)c(C)cc2F)c1=O (centres unmarked) [Example 249] | 2.32 | 2.26 | – | – | – | 90 | – | –
Cc1cc(F)c(-n2nc([S+]([O-])Cc3ccccc3)n(C)c2=O)cc1[S+]([O-])CC(F)(F)F (centres unmarked) [Example 250] | 2.34 | 2.29 | – | – | – | 100 | – | –
CCC[S+]([O-])c1nn(-c2cc([S+]([O-])CC(F)(F)F)c(C)cc2F)c(=O)n1CC (centres unmarked) [Example 251] | 2.22 | 2.18 | – | – | – | 100 | – | –
CCn1c([S+]([O-])CC)nn(-c2cc([S+]([O-])CC(F)(F)F)c(C)cc2F)c1=O (centres unmarked) [Example 252] | 1.90 | 1.87 | – | – | – | 100 | – | –
Cc1cc(F)c(-n2nc(SCC(F)(F)F)n(C3CC3)c2=O)cc1SCC(F)(F)F [Example 254] | 3.89 | 3.84 | – | – | – | 90 | – | –
Cc1cc(F)c(-n2nc(SCC(F)(F)F)n(C3CC3)c2=O)cc1[S+]([O-])CC(F)(F)F (centres unmarked) [Example 255] | 2.93 | 2.89 | – | – | – | 100 | – | –
Cc1cc(F)c(-n2nc(SCC(F)F)n(C3CC3)c2=O)cc1[S+]([O-])CC(F)(F)F (centres unmarked) [Example 256] | 2.73 | 2.69 | – | – | – | 90 | – | –
Cc1cc(F)c(-n2nc(SCC(F)F)n(C3CC3)c2=O)cc1SCC(F)(F)F [Example 258] | 3.71 | 3.75 | – | – | – | 90 | – | –
CSc1nn(-c2cc([S+]([O-])CC(F)(F)F)c(C)cc2F)c(=O)n1C (centres unmarked) [Example 260] | 2.07 | 2.03 | – | – | – | 100 | – | –
CCSc1nn(-c2cc([S+]([O-])CC(F)(F)F)c(C)cc2F)c(=O)n1C1CC1 (centres unmarked) [Example 262] | 2.81 | 2.76 | – | – | – | 100 | – | –
Cc1cc(F)c(-n2nc(SC(F)(F)F)n(C3CC3)c2=O)cc1SCC(F)(F)F [Example 263] | 4.08 | 4.01 | – | – | – | – | 100 | –
Cc1cc(F)c(-n2nc(SC(F)(F)F)n(C3CC3)c2=O)cc1[S+]([O-])CC(F)(F)F (centres unmarked) [Example 264] | 3.05 | 2.98 | – | – | – | 100 | – | –
CCCSc1nn(-c2cc([S+]([O-])CC(F)(F)F)c(C)cc2F)c(=O)n1C1CC1 (centres unmarked) [Example 266] | 3.24 | 3.17 | – | – | – | 100 | – | –
Cc1cc(F)c(-n2nc(SC(C)C)n(C3CC3)c2=O)cc1[S+]([O-])CC(F)(F)F (centres unmarked) [Example 267] | 3.19 | 3.12 | – | – | – | 100 | – | –
CCSc1nn(-c2cc([S+]([O-])CC(F)(F)F)c(C)cc2F)c(=O)n1C (centres unmarked) [Example 274, 5-(Ethylsulphanyl)-2-{2-fluoro-4-methyl-5-[(2,2,2-trifluoroethyl)sulphinyl]phenyl}-4-methyl-2,4-dihydro-3H-1,2,4-triazol-3-one] | – | – | 2.42 | 2.42 | 2.36 | – | – | 100
Cc1cc(F)c(-n2nc(SC(C)C)n(C)c2=O)cc1[S+]([O-])CC(F)(F)F (centres unmarked) [Example 275] | 2.73 | 2.68 | – | – | – | 100 | – | –
Cc1cc(F)c(-n2nc(SCc3ccccc3)n(C)c2=O)cc1SCC(F)(F)F [Example 286] | 4.12 | 4.03 | – | – | – | 100 | – | –
Cc1cc(F)c(-n2nc(Br)n(C3CC3)c2=O)cc1SCC(F)(F)F [Example 294] | 3.48 | 3.38 | – | – | – | 100 | – | –
Cc1ccc(-n2nnn(C)c2=O)cc1SCC(F)(F)F [Example 296] | 3.07 | 3.04 | – | – | – | 90 | – | –
Cc1cc(C)c(-n2nnn(C(C)C)c2=O)cc1SCC(F)(F)F [Example 298] | 3.81 | 3.78 | – | – | – | 100 | – | –
Cc1cc(F)c(-n2nnn(-c3ccc(Cl)cc3)c2=O)cc1SCC(F)(F)F [Example 306, 1-(4-Chlorophenyl)-4-{2-fluoro-4-methyl-5-[(2,2,2-trifluoroethyl)sulphanyl]phenyl}-1,4-dihydro-5H-tetrazol-5-one] | – | – | 4.75 | 4.75 | 4.59 | – | – | 100
Cc1cc(F)c(-n2nnn(-c3ccc(Cl)cc3)c2=O)cc1[S+]([O-])CC(F)(F)F (centres unmarked) [Example 307, 1-(4-Chlorophenyl)-4-{2-fluoro-4-methyl-5-[(2,2,2-trifluoroethyl)sulphinyl]phenyl}-1,4-dihydro-5H-tetrazol-5-one] | – | – | 3.53 | 3.53 | 3.49 | – | – | 100
COC1=CC(=O)N(c2cc(SCC(F)(F)F)c(C)cc2F)C1 [Example 310, 1-{2-Fluoro-4-methyl-5-[(2,2,2-trifluoroethyl)sulphanyl]phenyl}-4-methoxy-1,5-dihydro-2H-pyrrol-2-one] | – | – | 2.87 | 2.87 | 2.81 | – | – | 100
COC1=CC(=O)N(c2cc(SCC(F)(F)F)c(C)cc2C)C1 [Example 312] | 2.88 | 2.81 | – | – | – | 90 | – | –
COC1=CC(=O)N(c2ccc(C)c(SCC(F)(F)F)c2)C1 [Example 316] | 2.98 | 2.95 | – | – | – | 90 | – | –
COC1=CC(=O)N(c2cc([S+]([O-])CC(F)(F)F)c(C)cc2Cl)C1 (centres unmarked) [Example 318] | 1.99 | 1.94 | – | – | – | 90 | – | –
COC1=CC(=O)N(c2cc([S+]([O-])CC(F)(F)F)c(Cl)cc2F)C1 (centres unmarked) [Example 324] | 2.13 | 2.11 | – | – | – | 100 | – | –

Further lines, with some results ahead:

logP[a] [2] | logP[b] [3] | chromatographic logP [2, 4] | chromatographic logP [2, 5] | chromatographic logP [3] | Structure (SMILES) | efficacy ([1]; application rate of 500 g/ha) [%] | efficacy ([1]; application rate of 100 g/ha) [%] | pest or weed control at 500 g/ha ([1]; application rate of 500 g/ha) [%]
3.56 | 3.60 | – | – | – | CSc1nn(-c2cc(SCC(F)(F)F)c(C)cc2F)c(=O)n1C1CC1 [Example 259] | 100 | – | –
3.99 | 4.03 | – | – | – | CCSc1nn(-c2cc(SCC(F)(F)F)c(C)cc2F)c(=O)n1C1CC1 [Example 261] | 100 | – | –
4.41 | 4.32 | – | – | – | CCCSc1nn(-c2cc(SCC(F)(F)F)c(C)cc2F)c(=O)n1C1CC1 [Example 265] | 100 | – | –
4.37 | 4.28 | – | – | – | Cc1cc(F)c(-n2nc(SC(C)C)n(C3CC3)c2=O)cc1SCC(F)(F)F [Example 268] | 100 | – | –
3.53 | 3.44 | – | – | – | CCn1c(SC)nn(-c2cc(SCC(F)(F)F)c(C)cc2F)c1=O [Example 269] | 100 | – | –
3.61 | 3.58 | – | – | – | C=CCn1c(SC)nn(-c2cc(SCC(F)(F)F)c(C)cc2F)c1=O [Example 271] | 100 | – | –
– | – | 3.51 | 3.51 | 3.44 | CCSc1nn(-c2cc(SCC(F)(F)F)c(C)cc2F)c(=O)n1C [Example 273, 5-(Ethylsulphanyl)-2-{2-fluoro-4-methyl-5-[(2,2,2-trifluoroethyl)sulphanyl]phenyl}-4-methyl-2,4-dihydro-3H-1,2,4-triazol-3-one] | – | – | 100
3.86 | 3.80 | – | – | – | Cc1cc(F)c(-n2nc(SC(C)C)n(C)c2=O)cc1SCC(F)(F)F [Example 276] | 100 | – | –
3.90 | 3.86 | – | – | – | CCCSc1nn(-c2cc(SCC(F)(F)F)c(C)cc2F)c(=O)n1C [Example 277] | 100 | – | –
2.80 | 2.74 | – | – | – | CCCSc1nn(-c2cc([S+]([O-])CC(F)(F)F)c(C)cc2F)c(=O)n1C (centres unmarked) [Example 278] | 100 | – | –
3.91 | 3.83 | – | – | – | Cc1cc(F)c(-n2nc(SCC3CC3)n(C)c2=O)cc1SCC(F)(F)F [Example 279] | 100 | – | –
3.53 | 3.45 | – | – | – | Cc1cc(F)c(-n2nc(SCC(F)(F)F)n(C)c2=O)cc1SCC(F)(F)F [Example 281] | 100 | – | –
3.71 | 3.64 | – | – | – | Cc1cc(F)c(-n2nc(SC(F)(F)F)n(C)c2=O)cc1SCC(F)(F)F [Example 283] | 100 | – | –
3.18 | 3.13 | – | – | – | CCCSc1nn(-c2cc(SCC(F)(F)F)c(C)cc2F)c(=O)n1CC [Example 288] | 100 | – | –
3.62 | 3.56 | – | – | – | C=CCSc1nn(-c2cc(SCC(F)(F)F)c(C)cc2F)c(=O)n1C [Example 290] | 100 | – | –
3.91 | 3.86 | – | – | – | CCSc1nn(-c2cc(SCC(F)(F)F)c(C)cc2F)c(=O)n1CC [Example 292] | 100 | – | –
